Read-outs that look alike come from different tables or passages of the source.
Tests used:
purified CYP 1A2 = molecular target: T1, purified CYP 1A2 (Homo sapiens, UniProt P05177); assay: purified RECO System CYP 1A2 enzyme activity with methoxyresorufin
T1 sequence (P05177 2-516 limits assumed): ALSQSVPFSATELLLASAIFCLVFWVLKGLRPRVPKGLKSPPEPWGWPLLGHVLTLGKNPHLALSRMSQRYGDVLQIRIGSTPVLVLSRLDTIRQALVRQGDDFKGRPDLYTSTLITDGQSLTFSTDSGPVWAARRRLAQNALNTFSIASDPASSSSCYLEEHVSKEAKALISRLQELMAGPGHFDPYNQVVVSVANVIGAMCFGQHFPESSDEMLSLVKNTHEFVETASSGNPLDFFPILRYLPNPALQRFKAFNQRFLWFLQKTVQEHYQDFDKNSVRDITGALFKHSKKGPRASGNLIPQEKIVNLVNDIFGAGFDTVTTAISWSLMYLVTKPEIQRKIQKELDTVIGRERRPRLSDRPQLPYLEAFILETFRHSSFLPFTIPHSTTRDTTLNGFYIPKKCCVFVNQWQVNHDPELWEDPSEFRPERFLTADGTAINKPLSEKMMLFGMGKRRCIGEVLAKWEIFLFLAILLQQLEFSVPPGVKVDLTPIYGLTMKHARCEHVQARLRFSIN
Procedure: A composition of enzyme mixture comprises 0.5 uM CYP1A2, 0.2 μM NADPH P450 reductase, 0.5 μg/uL CHAPS, 0.1 μg/uL liposomes (dilauroyl phosphotidylcholine, dileoyl phosphotidylcholine, dilauroyl phosphotidylcholine (1:1:1)), 3 mM reductive glutathion, and 50 mM HEPES/KOH (pH 7.4). A buffer solution is 1 M potassium/sodium phosphate. 768 μl of tertiary distilled water, 126.7 μl of CYP 1A2 buffer solution, and 5.3 μl of 1 mM methoxyresorufin were added sequentially to make […] of solution and heated at 37° C. 5 μl of enzyme activation inhibiting material was added into 85 μl of buffer solution and substrate mixture to make final concentration 0.1, 0.5, 1.0, and 2.0 mg/ml respectively. The reaction started at 37° C. while adding 5 μl of CYP 1A2 enzyme mixture and 5 μl of 50 mM NADPH. The reaction was maintained for 20 minutes and stopped by adding 1 ml of methanol. The enzyme activity was measured by using a RF-5301 PC spectrofluoro photometer (SHIMADZU, Japan).

[1] = DPPH free radical scavenging
Procedure: 1.5 ml of DPPH was placed into a cuvette and 1.5 ml of antioxidant solution was added and evenly mixed. Right after mixing, the change of absorbance (523 nm) according to time was measured and the decomposition rate was calculated. Decomposition rate=(initial absorbance of DPPH−absorbance after adding each specimen according to time)/initial absorbance of DPPH×100 (Calculating formula 3)

[2] = inhibition of nitrosomorpholine generation from morpholine and NaNO2 in vitro; details: 20 mg/ml
Procedure: EGCG, quercetin, catechin, vitamin C and powdered green tea were used as a control group. Each specimen was used in a concentration of 2.5, 5, 10, 15, 20 mg/ml. 200 mM of sodium nitrate not containing morpholine was used as a negative control. The specimen not containing the nitrosating agent NaNO2 was used as a blank in each reaction.
Each specimen was added into 15 ml of corning tubes according to concentration and marked with the blank, test, negative control. 1 ml of glacial acetic acid was added into each tube and 100 μl of 2 M NaNO2 was added into each tube except blank and distilled water was added to make total volume of 2 ml. After reacting for 10 minutes at 37° C., 176 μl of morpholine was added to make 2 M and the reaction was further carried out for 30 minutes at 37° C. The reaction was stopped by adding 3.8 ml of 5 N NaOH to set pH 10 to 12. According to DBA method, the specimens were measured and compared with blank group (not added NaNO2) and negative control group (not added morpholine and added 200 mM NaNO2).
Generation rate of nitrosomorpholine (NMOR %) is measured as below calculating formula 1. NMOR %=[(t0−blank)−(t30−blank)]/(t0−blank) (Calculating formula 1) • Blank; a specimen not containing nitrosating agent NaNO2 • t0; a specimen containing 200 mM of NaNO2 without morpholine • t30; a specimen normally reacted in the generation of nitrosomorpholine.

CYP 1A2 [3] = molecular target: T2, CYP 1A2 (Rattus norvegicus, UniProt P04799)
T2 sequence (P04799 1-513): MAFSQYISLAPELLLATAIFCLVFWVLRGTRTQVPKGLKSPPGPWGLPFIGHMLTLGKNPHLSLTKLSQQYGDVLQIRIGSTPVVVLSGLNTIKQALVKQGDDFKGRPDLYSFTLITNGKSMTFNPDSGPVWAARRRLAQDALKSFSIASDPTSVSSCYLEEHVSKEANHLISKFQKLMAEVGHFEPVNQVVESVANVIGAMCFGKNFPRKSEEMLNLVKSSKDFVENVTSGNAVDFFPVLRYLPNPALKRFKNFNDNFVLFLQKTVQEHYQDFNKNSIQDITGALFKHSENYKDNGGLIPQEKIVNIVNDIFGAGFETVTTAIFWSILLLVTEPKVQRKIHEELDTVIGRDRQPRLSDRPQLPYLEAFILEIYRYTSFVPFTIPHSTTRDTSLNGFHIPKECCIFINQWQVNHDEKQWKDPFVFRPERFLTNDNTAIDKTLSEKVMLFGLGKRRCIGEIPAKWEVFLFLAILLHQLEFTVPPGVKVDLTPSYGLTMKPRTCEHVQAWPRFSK
Procedure: (§1) The present test measured the inhibition effect of CYP relating to NNK activation to various test materials after inducing CYP of a liver from a rat(Sprague-Dawley rat) by Aroclor 1254(Sigma, USA) and taking out the liver.
(§2) Aroclor 1254 was injected into the abdomen of a 7-week old male rat (Sprague-Dawley rat) in a capacity of 500 mg/kg. After 5 days, the liver was taken out in a sterile state and homogenized using 0.15M of KCl solution at 4° C. A supernatant was separated by a centrifugal separation for 10 minutes at 9000 g from the homogenate and used in the test. Activity of CYP was measured by using pentoxyresorufin(Sigma USA) which is a substrate of CYP 2B1/2/4, ethoxyresorufin(Sigma USA) which is a substrate of CYP 1A1 and methoxyresorufin(Sigma USA) which is a substrate of CYP 1A2. […] The inhibition effect for CYP activity was compared using the above reaction specimen (inhibition material), the supernatant taken out from the liver and specific substrate of each CYP. […] Each specimen has a concentration of 0.1, 0.5, 1.0 and 2.0 mg/ml and an amount of protein taken out from the liver is set to 500 μg/ml. Each substrate had 2.5 μM of stock solution and finally became 25 nM after adding 10 μl. […] The enzyme activity was measured by using a RF-5301 PC spectrofluoro photometer (SHIMADZU, Japan) from the supernatant (excitation at 522 nm and emission at 586 nm). […]

[4] = test system: breast cancer, leukemia, uterus cancer, stomach cancer and colon cancer cell strain; details: cited from earlier work
CYP 1A2 [5] = molecular target: T2, CYP 1A2; assay: MROD (methoxyresorufin dealkylase) activity in Aroclor 1254-induced rat liver supernatant
Procedure: as §1, §2

[6] = cited from earlier work

## epigallocatechin-3-gallate [EGCG]
Purified CYP 1A2; purified enzyme
  order of inhibition of activity of purified CYP 1A2: EGCG>>the functional agent>>quercetin>>powdered green tea>>catechin
[1]
  DPPH radical scavenging effect, comparison: two times higher than that of the functional agent and catechin

## O=c1c(O)c(-c2ccc(O)c(O)c2)oc2cc(O)cc(O)c12 [quercetin]
[2]
  inhibition of generating nitromorpholine from morpholine: ~75%
Purified CYP 1A2
  order of inhibition of activity of purified CYP 1A2: EGCG>>the functional agent>>quercetin>>powdered green tea>>catechin
CYP 1A2 [3]
  order of inhibition of activity of CYP 1A2: quercetin>>the functional agent>>catechin≈powdered green tea
[4]
  concentration of quercetin at which propagation of cancer cell strain was inhibited: 10 µM

## catechin
[2]
  inhibition of generating nitromorpholine from morpholine: ~75%
Purified CYP 1A2; purified enzyme
  order of inhibition of activity of purified CYP 1A2: EGCG>>the functional agent>>quercetin>>powdered green tea>>catechin
CYP 1A2 [5]
  order of inhibition of activity of CYP 1A2: quercetin>>the functional agent>>catechin≈powdered green tea

## CN1C(=O)CC[C@H]1c1cccnc1 [cotinine]
[6]; cotinine
  half period: 24 h

## O=C(O)CCC(=O)c1cccnc1 [ketoic acid]
[6]; in vivo
  share of ketoic acid metabolized to hydroxy acid and excreted as urine: 85%

## CN1CCCC1c1cccnc1 (stereo not drawn) [nicotine]
[6]; in vivo
  share of nicotine conversed into cotinine: 70-80%
  share of nicotine conversed into nicotine-1-N-oxide by FMO: 4%
  share of nicotine excreted as urine through metabolism: 80-90%
[6]; nicotine
  half period: 0.5 h
